This assay deals with T1, hP2X3 (human Purinergic P2X receptors subtype 3), clone B (Homo sapiens, UniProt P56373).
T1 sequence (P56373 1-397): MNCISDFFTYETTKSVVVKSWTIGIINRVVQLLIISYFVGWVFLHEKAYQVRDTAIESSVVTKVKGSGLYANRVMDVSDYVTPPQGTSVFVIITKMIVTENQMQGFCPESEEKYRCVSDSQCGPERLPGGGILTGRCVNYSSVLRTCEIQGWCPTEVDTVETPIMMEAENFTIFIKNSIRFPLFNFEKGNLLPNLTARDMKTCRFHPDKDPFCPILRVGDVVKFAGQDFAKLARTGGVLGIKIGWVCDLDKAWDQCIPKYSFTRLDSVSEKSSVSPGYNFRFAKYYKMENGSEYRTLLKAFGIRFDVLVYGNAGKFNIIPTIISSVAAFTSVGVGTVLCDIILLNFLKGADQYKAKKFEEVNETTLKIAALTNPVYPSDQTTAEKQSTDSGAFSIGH
Kind of assay: hP2X3 FLIPR calcium (Fluo-4) antagonist assay, clone B. The following applies: Human P2X3 FLIPR Clone B IC50 (nM), RLE cells expressing hP2X3 clone B (NM_002559); agonist 500 nM α,β-methylene-ATP.
The term IC50 denotes the concentration at which inhibition is half-maximal. With `CC(=O)N1CCN(c2nc(NC(Cc3ccccc3)c3ccccc3)c3c(n2)C(=O)N(C(C)C)C3)CC1` (centres unmarked) [Example 88, 2-(4-Acetyl-piperazin-1-yl)-4-(1,2-diphenyl-ethylamino)-6-isopropyl-5,6-dihydro-pyrrolo[3,4-d]pyrimidin-7-one], the IC50 was 1800 nM. The same measure for `CCN(CC)c1nc(NC(c2ccccc2)c2ccccc2)c2c(n1)C(=O)N(C(C)C)C2` [Example 89, 4-(Benzhydryl-amino)-2-diethylamino-6-isopropyl-5,6-dihydro-pyrrolo[3,4-d]pyrimidin-7-one]: 6200 nM. The result for `CC(=O)N1CCN(c2nc(NCC(c3ccccc3)c3ccccc3)c3c(n2)C(=O)N(C(C)C)C3)CC1` [Example 91, 2-(4-acetylpiperazin-1-yl)-4-[(2,2-diphenylethyl)amino]-6-isopropyl-5,6-dihydro-7H-pyrrolo[3,4-d]pyrimidin-7-one] reads 100 nM. As to `CC(=O)NCCNc1nc(NC(c2ccccc2)c2ccccc2)c2c(n1)C(=O)N(C(C)C)C2` [Example 93, N-{2-[4-(Benzhydryl-amino)-6-isopropyl-7-oxo-6,7-dihydro-5H-pyrrolo[3,4-d]pyrimidin-2-ylamino]-ethyl}-acetamide], the IC50 stood at 290 nM. The same measure for `CC(C)N1Cc2c(NC(c3ccccc3)c3ccccc3)nc(NCc3cccnc3)nc2C1=O` [Example 94, 4-(Benzhydryl-amino)-6-isopropyl-2-[(pyridin-3-ylmethyl)-amino]-5,6-dihydro-pyrrolo[3,4-d]pyrimidin-7-one]: 250 nM; for `CC(=O)N1CCN(c2nc3c(c(N(Cc4ccccc4)Cc4ccccc4)n2)CN(C(C)C)C3=O)CC1` [Example 95, 2-(4-Acetyl-piperazin-1-yl)-4-dibenzylamino-6-isopropyl-5,6-dihydro-pyrrolo[3,4-d]-pyrimidin-7-one]: 430 nM; for `CC(C)N1Cc2c(NC(c3ccccc3)c3ccccc3)nc(NCCN(C)C)nc2C1=O` [Example 97, 4-(Benzhydryl-amino)-2-(2-dimethylamino-ethylamino)-6-isopropyl-5,6-dihydro-pyrrolo[3,4-d]pyrimidin-7-one]: 230 nM. As for `COCCNc1nc(NC(c2ccccc2)c2ccc(C)cc2)c2c(n1)C(=O)N(C(C)C)C2` (centres unmarked) [Example 98, 6-isopropyl-2-(2-methoxy-ethylamino)-4-[(phenyl-p-tolyl-methyl)-amino]-5,6-dihydro-pyrrolo[3,4-d]-pyrimidin-7-one], the IC50 amounted to 210 nM. The same measure for `CC(C)N1Cc2c(NC(c3ccccc3)c3ccccc3)nc(NCCO)nc2C1=O` [Example 100]: 1100 nM; for `CCN1CCN(c2nc(NC(c3ccccc3)c3ccc(C)cc3)c3c(n2)C(=O)N(C(C)C)C3)CC1` (centres unmarked) [Example 101, 2-(4-Ethyl-piperazin-1-yl)-6-isopropyl-4-[(phenyl-p-tolyl-methyl)-amino]-5,6-dihydro-pyrrolo[3,4-d]-pyrimidin-7-one]: 150 nM. The result for `Cc1ccc(C(Nc2nc(N3CCN(C(C)C)CC3)nc3c2CN(C(C)C)C3=O)c2ccccc2)cc1` (centres unmarked) [Example 102, 2-(4-isopropyl-piperazin-1-yl)-6-isopropyl-4-[(phenyl-p-tolyl-methyl)-amino]-5,6-dihydro-pyrrolo[3,4-d]-pyrimidin-7-one] reads 200 nM. Turning to `COc1ccc(C(Nc2nc(N3CCN(C(C)=O)CC3)nc3c2CN(C(C)C)C3=O)c2ccccc2)cc1` (centres unmarked) [Example 103, 2-(4-Acetyl-piperazin-1-yl)-6-isopropyl-4-{[(4-methoxy-phenyl)-phenyl-methyl]-amino}-5,6-dihydro-pyrrolo[3,4-d]pyrimidin-7-one], the IC50 is 310 nM. The same measure for `CC(=O)N1CCN(c2nc(Nc3cccc(C(C)C)c3)c3c(n2)C(=O)N(C(C)C)C3)CC1` [Example 105, 2-(4-Acetyl-piperazin-1-yl)-6-isopropyl-4-(3-isopropyl-phenylamino)-5,6-dihydro-pyrrolo[3,4-d]-pyrimidin-7-one]: 9300 nM; for `CC(C)N1Cc2c(nc(NCCN(C)C)nc2N(Cc2ccccc2)Cc2ccccc2)C1=O` [Example 106, 4-Dibenzylamino-2-(2-dimethylamino-ethylamino)-6-isopropyl-5,6-dihydro-pyrrolo[3,4-d]-pyrimidin-7-one]: 5300 nM; for `CCN1CCN(c2nc(NCC(c3ccccc3)c3ccccc3)c3c(n2)C(=O)N(C(C)C)C3)CC1` [Example 107, 4-(2,2-Diphenyl-ethylamino)-2-(4-ethyl-piperazin-1-yl)-6-isopropyl-5,6-dihydro-pyrrolo[3,4-d]pyrimidin-7-one]: 2300 nM. The result for `CC(C)N1Cc2c(NCC(c3ccccc3)c3ccccc3)nc(NCCCN(C)C)nc2C1=O` [Example 108, 2-(3-Dimethylamino-propylamino)-4-(2,2-diphenyl-ethylamino)-6-isopropyl-5,6-dihydro-pyrrolo[3,4-d]pyrimidin-7-one] reads 4400 nM; that for `CNCCNc1nc(NCC(c2ccccc2)c2ccccc2)c2c(n1)C(=O)N(C(C)C)C2` [Example 109, 4-(2,2-Diphenyl-ethylamino)-6-isopropyl-2-(2-methylamino-ethylamino)-5,6-dihydro-pyrrolo[3,4-d]pyrimidin-7-one], 7200 nM. The same measure for `CCCN1Cc2c(NC(c3ccccc3)c3ccccc3)nc(N3CCOCC3)nc2C1=O` [Example 110, 4-[(diphenylmethyl)amino]-2-morpholin-4-yl-6-propyl-5,6-dihydro-7H-pyrrolo[3,4-d]pyrimidin-7-one]: 3300 nM; for `CC(=O)N1CCN(c2nc3c(c(N(C)Cc4ccc(Cl)cc4)n2)CN(C(C)C)C3=O)CC1` [Example 111, 2-(4-acetylpiperazin-1-yl)-4-[(4-chlorobenzyl)(methyl)amino]-6-isopropyl-5,6-dihydro-7H-pyrrolo[3,4-d]pyrimidin-7-one]: 9000 nM.

Regarding `CC(=O)N1CCN(c2nc(NCC3(c4ccc(Cl)cc4)CCCC3)c3c(n2)C(=O)N(C(C)C)C3)CC1` [Example 113, 2-(4-acetylpiperazin-1-yl)-4-({[1-(4-chlorophenyl)cyclopentyl]methyl}amino)-6-isopropyl-5,6-dihydro-7H-pyrrolo[3,4-d]pyrimidin-7-one], the IC50 came to 460 nM. With `CC(=O)N1CCN(c2nc3c(c(N4CCC[C@H]4Cc4ccccc4)n2)CN(C(C)C)C3=O)CC1` [Example 117, 2-(4-acetylpiperazin-1-yl)-4-[(2S)-2-benzylpyrrolidin-1-yl]-6-isopropyl-5,6-dihydro-7H-pyrrolo[3,4-d]pyrimidin-7-one], the IC50 was 3700 nM. The same measure for `CCN1Cc2c(NC(C)(C)Cc3ccc(F)cc3)nc(N3CCN(C(C)=O)CC3)nc2C1=O` [Example 118, 2-(4-acetylpiperazin-1-yl)-6-ethyl-4-{[2-(4-fluorophenyl)-1,1-dimethylethyl]amino}-5,6-dihydro-7H-pyrrolo[3,4-d]pyrimidin-7-one]: 1100 nM; for `CCN1CCN(c2nc(NC(c3ccccc3)c3ccccn3)c3c(n2)C(=O)N(C(C)C)C3)CC1` (centres unmarked) [Example 119, 2-(4-ethylpiperazin-1-yl)-6-isopropyl-4-{[phenyl(pyridin-2-yl)methyl]amino}-5,6-dihydro-7H-pyrrolo[3,4-d]pyrimidin-7-one]: 3200 nM.

These data come from patent US20090099195A1 (ASTRAZENECA AB, priority 2007, published 2009).
